In patent US20250161238A1, “NMDAR Antagonists Prevent Ageing and Aging-Associated Conditions and Diseases Through Increasing 20S Proteasome Activity” (priority 2022, published 2025):

Tests used:
proteasome [1] = biological target: T1, proteasome (Homo sapiens, UniProt P28072+P28074+Q99436); assay: In-Cell Fluorogenic Proteasome Assay, T98G; format: cell-based; parameters: endogenous in cells; host or cells: T98G (A10), digitonin/Tween-permeabilised whole cells; conditions: whole T98G cell
T1 sequence (P28074 60-263): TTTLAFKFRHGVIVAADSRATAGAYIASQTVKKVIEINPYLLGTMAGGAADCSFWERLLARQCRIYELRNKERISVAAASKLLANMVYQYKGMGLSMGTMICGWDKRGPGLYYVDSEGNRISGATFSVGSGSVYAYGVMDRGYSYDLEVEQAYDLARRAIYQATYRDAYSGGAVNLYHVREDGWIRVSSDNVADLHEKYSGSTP
T1 sequence (Q99436 44-277): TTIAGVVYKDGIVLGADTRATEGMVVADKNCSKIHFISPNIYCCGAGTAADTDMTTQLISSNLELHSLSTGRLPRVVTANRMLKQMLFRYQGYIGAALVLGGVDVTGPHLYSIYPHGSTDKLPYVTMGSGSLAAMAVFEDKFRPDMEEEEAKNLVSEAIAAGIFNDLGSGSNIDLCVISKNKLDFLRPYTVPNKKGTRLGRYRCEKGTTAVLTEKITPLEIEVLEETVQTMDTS
T1 sequence (P28072 1-239): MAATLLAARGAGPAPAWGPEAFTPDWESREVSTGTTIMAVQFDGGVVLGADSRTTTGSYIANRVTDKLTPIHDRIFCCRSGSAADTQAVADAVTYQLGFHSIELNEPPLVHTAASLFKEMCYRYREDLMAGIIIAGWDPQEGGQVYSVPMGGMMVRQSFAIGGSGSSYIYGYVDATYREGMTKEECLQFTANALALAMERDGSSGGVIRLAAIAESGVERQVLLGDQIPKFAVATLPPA
Method: (§1) For a 96-well plate format, 8×10^3 cells per well were seeded. 24 hours later medium was changed with NMDAR blocker containing medium. Two hours later 100 μl of 2× flourescence cell buffer: (1 ml 1M tris hcl ph: 7.5, 500 μl 1M KCL, 200 μl […], 200 μl 0.1M MgCL2, 50 μl % 0.2 tween 20, 75 μl digitonin 20 mg/ml in DMSO ChemCruz cat no: sc-280675, 10 μl flourescence substrates including Suc-LLVY-AMC, Z-LLE-AMC, and Ac-RLR-AMC Ac-RLR-AMC, 8.1 ml H2O). After incubation at room temperature for a 5 minutes the flourescence of each sample were measured in a flourescence spectrometer (Biotek instrument-Synergy HT).

[2] = test system: primary human fibroblast cells; assay: SA β-gal staining of primary human fibroblast cells; format: cell-based; conditions: passage 10
From the text: (§2) First, primary human fibroblast cells were divided into two as control and NMDAR added group at the 4th passage and followed under the same condution until the 10th passage.
Therefore cellular senescence were investigated by SA β-gal staining in cells at passage 10.

proteasome [3] = biological target: T1, proteasome; assay: In-Cell Fluorogenic Proteasome Assay, HepG2; format: cell-based; parameters: endogenous in cells; host or cells: HepG2 (A9), T98G (A10), digitonin/Tween-permeabilised whole cells; conditions: for trypsin, chemotrypsin and caspase-like proteasome activities: whole HepG2 cell
Method: as §1

[4] = test system: primary human fibroblast cells; assay: MTT assay of primary human fibroblast cells; format: cell-based; conditions: cells set up at passage 8
From the text: as §2
Cellular senescence is defined as a complete and irreversible loss of replicative capacity in primary somatic cells. (hayflick 1961). Therefore, MTT assay is used to measure cellular metabolic activity as an indicator of cell viability and proliferation in cells set up at passage 8.

[5] = test system: primary human fibroblast cells; assay: Nile red staining of lipid droplets in primary fibroblast cells; format: cell-based; conditions: late passage
From the text: In another experiment, the amount of intracellular lipid droplets as indicator of fat metabolism were investigated in senescent cells with nile red staining in cells at the late passage. Nile red is a lipophilic stain which stain intracellular lipid droplets and proteins. Lipid droplets are highly dinamic cellular organelles involved in the storage and the metabolism of neutral lipids.

26S proteasome = biological target: T2, 26S proteasome (Homo sapiens, UniProt P28072+P28074+Q99436); assay: Proteasome activity assay with cell lysate and fluorogenic substrates; format: biochemical; conditions: cell lysate
T2 construct: endogenous in cells; host or cells: crude cell lysate
T2 sequence (P28074 60-263): T1 sequence (P28074 60-263)
T2 sequence (Q99436 44-277): T1 sequence (Q99436 44-277)
T2 sequence (P28072 1-239): T1 sequence (P28072 1-239)
Method: The activity of the 26S proteasome was measured by following steps. Aliquots of 2×10^6 cells were lysed with glass beads (Sigma) at 4° C. in lysis buffer containing 50 mM Tris-HCl (pH 7.5), 5 mM MgCl2, 1 mM DTT and 250 mM sucrose, and the protein concentration of cleared supernatants was measured by BCA protein assay reagent (Pierce). Ten micrograms of total protein was diluted with 26S proteasome assay buffer in a 96-well microtiter plate (BD Falcon), and incubated with fluorogenic substrates including Suc-LLVY-AMC, Z-LLE-AMC, and Ac-RLR-AMC Ac-RLR-AMC (Cayman-U.S.A.) were used to measure chymotrypsin, caspase-, and trypsin-like proteasome activity, respectively. Fluorescence released by AMC fluorescence was monitored on a microplate fluorometer (Biotek instrument-synergy HT) every 5 min at 37° C. for 1 h.

p21-GFP fusion protein = p21-GFP fusion protein amount in cells; format: cell-based, human; conditions: Hep3B expressing p21-GFP
oxidized proteins = assay: Oxidation status of proteins in mouse tissues (DNP-hydrazone western blot); format: in vivo; conditions: 24 month old mice
NMDA receptor = conditions: cited from earlier work
[6] = test system: human mesenchymal stem cells; assay: Lipid droplet amount in mesenchymal stem cells; format: cell-based; conditions: day 14
From the text: Cell were harvested at day 14 for western blot and the protein expression amounts of the differentiation markers cd44, cd73, and cd90 were investigated. […] Another indicator of the stem cell differentiation is the determination of the amounts of lipid droplet in the cell. Fourteen-day cell passage is caused to increase lipid in the cell. It was observed that memantine treatment has prevented the amount of lipid droplet (FIG. 36D).

C. elegans = C. elegans lipid accumulation by Nile Red staining; format: in vivo
From the text: In the next study, the effects of NMDAR blocker on lipid accumulation and central body fat and thus the fat metabolism in C. elagans was investigated. As mentioned above Nile red is a lipophilic stain which stain intracellular lipid droplets in cell. Therefore, in the presence of memantine and control C. elegans groups on the 19th day, the amount of fat in the living organisms was investigated by Nile Red staining.

hippocampal slices = conditions: 6-10 uM; cited from earlier work
[7] = humans, 20 mg per day; cited from earlier work

SMILES | trypsin, chemotrypsin and caspase-like proteasome activities (proteasome [1]) | SA β-gal stained cells, control cells compared to treated cells [2] | trypsin, chemotrypsin and caspase-like proteasome activities (proteasome [3]) | chemotrypsin activity of proteasome (proteasome [3]; whole cell, substance alone) | proliferation (MTT assay) [4] | Nile red flourescence (intracellular lipid droplets) [5] | trypsin, chemotrypsin and caspase-like proteasome activity (26S proteasome) | p21-GFP fusion protein / GFP amount (p21-GFP fusion protein) | chemotrypsin activity of proteasome in the presence of RA190 (proteasome [3]; HepG2) | oxidation of protein from lung tissue (oxidized proteins) | Oxidized proteins in liver, brain, kidney, skin and pancreas (oxidized proteins; memantin for 12 months) | block of NR2C and NR2D Subunits (NMDA receptor) | effects at NR2A (NMDA receptor) | potency at NR1A/2B (NMDA receptor) | levels at which the mechanism of action is specific for antagonism of the NMDA receptor (NMDA receptor; does not affect other ligand-gated or Voltage gated channels) | amount of lipid droplet [6] | lipid accumulation in control group compared to treated (C. elegans; 19th day) | lipid accumulation in control group compared to treated (C. elegans; 20th day) | LTP in hippocampal slices (hippocampal slices) | serum levels [7]
CNC1(c2ccccc2Cl)CCCCC1=O (centres unmarked) [ketamin, 2-(2-chlorophenyl)-2-(methylamino)-cyclohexanone] | increased | 2.6 fold | increased | depending on the amount of the drugs | higher | more flourescence | no effects | decrease |  |  |  |  |  |  |  |  |  |  |  | 
CC12CC3CC(C)(C1)CC(N)(C3)C2 [memantine, 3,5-dimethyladamantan-1-amine] | increased | 1.8 fold | increased |  | higher | more flourescence | no effects |  | very similar to the ketamin results | No significant change | reduced | preferentially blocks | weak effects | intermediate potency | 1 to 10 µM | prevented | more than 2 fold | more than 2 fold | do not attenuate | 0.5 to 1.0 µM
